Reference: patent publication EP0308983A2, “NMR imaging with Mn(II) coordination compositions” (priority 1987, dated 1989)
Values joined by “and” are separate entries in the source; they are usually repeats but may differ in a detail not shown here. Identical values can stand only once. Like-named read-outs stand apart in the source and are kept apart here.

Assays:
[1] = Dose needed to lower blood or plasma T₁ to 200 msec at 0.15 T
[2] = test system: test population of animals; conditions: for LD₅₀: Table A, species and unit not given; for Safety Factor: in vivo
[3] = Paramagnetic relaxation properties in water at 10 MHz (0.15T), RADX spin analyzer; format: physicochemical; conditions: 10 MHz (0.15T)
Experimental: The paramagnetic relaxation properties of [manganese(II)·(H₂O)₂·(L-alanine)₂]⁺²(Cl₂)⁻² in water were measured at 10 MHz (0.15T) with a spin analyzer (RADX; Houston, TX) at 37°C. After thermal equilibrium, the spin-lattice (T₁) and spin-spin (T₂) relaxation values were measured in triplicate.
The paramagnetic relaxation of the title compound in water was measured at 10 MHz (0.15T) with a spin analyzer (RADX; Houston, TX). After thermal equilibrium, the spin-lattice (T₁) and spin-spin (T₂) relaxation values were measured.
Relaxivity was measured at 10 MHz (0.15T) as described in Example 10.
The relaxivity of the title compound was performed at 0.15 T (10 MHz) with a RADX Spin Analyzer (Houston, TX) at 37°C.

[4] = Experimental: Three buffers were tested for suitability.
One part of the solution of the title compound, synthesized according to Example 35, was added to one part of a US National Bureau of Standard buffer solution for pH 4.0 (American Scientific Products; Phthalate reference buffer).

[5] = Paramagnetic relaxation properties in human plasma at 37°C; format: physicochemical
[6] = test system: Rats; conditions: IV, standard conditions, 10 animals per dosage group
Description: The doses were 0.3, 0.5, and 0.8 mmole/kg. 10 Animals were used in each dosage group.

[7] = Stability of aqueous solutions after addition of a NaOH solution; conditions: ratio of OH⁻ to compound of 0.2; 161 mM (glycine) or 167 mM (gluconate) aqueous solution
Experimental: NMR contrast agents must be stable in solution under adverse conditions to be effective as pharmaceutical agents.
One ml of a 161 mM solution (initial pH 5) was placed in a test tube at 19°C. Sodium hydroxide (0.032 ml; 1 N) was added to the solution, giving a ratio of OH⁻ to compound of 0.2.
[Manganese(II)·(H₂O)₂·(gluconate)₂]⁺²(Cl₂)⁻² was prepared according to the procedure of Example 24. Deionized water was added to form a 167 mM clear solution. One mole equivalent of sodium hydroxide solution was added to five mole equivalents of the [manganese(II)·(H₂O)₂·(gluconate)₂]⁺²(Cl₂)⁻² solution, giving a ratio of OH⁻ to compound of 0.20.

[8] = test system: New Zealand white rabbit
Experimental: This solution was infused into a New Zealand white rabbit (3.1 kg wt.) at 0.065 mmole/kg/min for 5 min to achieve a total dose of […]. […] 15 Min after the infusion, the rabbit was sacrificed by lethal pentobarbitol injection, and the heart and liver were removed. Samples of these organs were tested for relaxation time at 0.15 T with a RADX spectrometer (Houston, TX).
At a lower dose level (0.10 mmole/kg), the effects of a rapid bolus injection (10 sec) or a slow infusion (over 5 min) were tested in two New Zealand white rabbits. 15 Min after the end of the infusion or injection, the animals were sacrificed and T₁ and T₂ values were measured on 4-16 individual samples of kidney, liver and heart tissue.

[9] = test system: New Zealand white rabbits; conditions: rabbit, 1.5 T
Experimental: A General Electric Signa Magnetic Resonance Imaging System, operating at 1.5 T, and using a knee surface coil was used. New Zealand white rabbits (ca. 2.5 kg wt.) were used for imaging. […] With these instrument settings, an image could be acquired in about 1.3 min. Images of the rabbit kidney and liver were taken before injection and at 1, 3, 6, 8, 12, 16, 21, 26, 36, 46, and 56 min intervals after injection.
Schematic drawings of the images before injection and at intervals of 10 and 60 minutes are show in Fig. 1, 2 and 3, respectively.

[10] = Plasma clearance: plasma T₁ and T₂ times after injection; format: in vivo; conditions: rabbit, 0.1 mmole/kg; for plasma T₁ / plasma T₂: 0.15 T
Experimental: A dose of 0.1 mmole/kg of GdDTPA was injected into a rabbit and blood samples were drawn at 10 min intervals for 50 min. The blood was centrifuged, and the plasma T₁ and T₂ times were measured at 0.15 T with a RADX PROTON SPIN ANALYZER (Houston, TX).

[11] = one part + one part carbonate pH reference buffer pH 10.0, the pH was 10.45
[12] = one part + one part phosphate pH reference buffer pH 7.0, the pH was 7.63
[13] = one part solution + one part phthalate reference buffer pH 4.0, the pH was 4.69
[14] = 0.99 mM solution in water, 37°C, triplicate, mean +/- SD
[15] = 37°C, repeat measurement 80 minutes later
[16] = 0.10 mmole/kg, bolus (10 sec), 15 min after, mean of samples
[17] = 0.10 mmole/kg, slow infusion (over 5 min), 15 min after, mean of samples
[18] = infusion 0.065 mmole/kg/min for 5 min, total dose 0.31 mole/kg, 15 min after infusion, 0.15 T
[19] = dose needed to lower T₁ from 1500 to 200 msec at 0.15 T, unit not given

**Q.** Which “Plasma Dose, T₁ = 200” value [1] does the source give for `CC(=O)[O-].CC(=O)[O-].NCC(=O)O.NCC(=O)O.[Mn+2]` [Mn(acetate)₂-bis-glycine] here?
**A.** Its value is 0.10.

**Q.** And the LD₅₀ [2]?
**A.** Its LD₅₀ is 0.7.

**Q.** What about the “Safety Factor” value [2] of the same compound?
**A.** Its value is 70.

**Q.** For `CC(=O)[O-].CC(=O)[O-].NCC(=O)O.NCC(=O)O.O.O.[Mn+2]` [[Manganese(II)·(H₂O)₂·(Glycine)₂]Diacetate], which “Relaxivity (mM⁻¹sec⁻¹) Spin-Lattice” value ([3]; 1 mM solution in water) is on record?
**A.** Its value is 8.40 mM⁻¹ s⁻¹.

**Q.** What about the “Relaxivity (mM⁻¹sec⁻¹) Spin-Spin” value ([3]; 1 mM solution in water) of the same compound?
**A.** The value was 34.5 mM⁻¹ s⁻¹.

**Q.** And the “appearance of the solution” value [4, 11]?
**A.** The value was “remained clear”.

**Q.** And the “change of relaxivity over a 12 hour time period” value (“change of relaxivity” below) [4, 11]?
**A.** Its value is “the relaxivity did not change”.

**Q.** And the “appearance of the solution” value [4, 12]?
**A.** Its value is “remained clear”.

**Q.** And the “change of relaxivity” value [4, 12]?
**A.** Its value is “the relaxivity did not change”.

**Q.** And the “appearance of the solution” value [4, 13]?
**A.** Its value is “remained clear”.

**Q.** And the “change of relaxivity” value [4, 13]?
**A.** The value was “the relaxivity did not change”.

**Q.** What does the source list for `NCC(=O)O.NCC(=O)O.O.O.[Cl-].[Cl-].[Mn+2]` [[Manganese(II)·(H₂O)₂·(glycine)₂]⁺²(Cl₂)⁻²]?
**A.** spin-lattice (T₁) relaxation value [3, 14]: 109 ± 5 ms; spin-spin (T₂) relaxation value [3, 14]: 26 ± 1 ms; millimolar relaxivity for T₁ ([3]; in water, calculated from T₁ and concentration): 9.27 mM⁻¹ s⁻¹; millimolar relaxivity for T₂ ([3]; in water, calculated from T₂ and concentration): 38.9 mM⁻¹ s⁻¹; T₂ value ([5]; 94 µM final concentration, 37°C): 184 ± 12 ms; T₁ value ([5]; 94 µM final concentration, 37°C, triplicate): 227 ± 3 ms; R₁ ([5]; 37°C): 46.9 mM⁻¹ s⁻¹; R₂ ([5]; 37°C): 57.8 mM⁻¹ s⁻¹; T₁ changed by (repeat measurement) [5, 15]: 2%; T₂ changed by (repeat measurement) [5, 15]: 2%; T₂ relaxivity in plasma, fold greater than GdDTPA ([5]; versus GdDTPA): 12.0 fold; T₁ relaxivity in plasma, fold greater than GdDTPA ([5]; versus gadolinium diethylenetriaminepentaacetic acid chelate (GdDTPA)): 9.8 fold; LD₅₀ [6]: 0.70 mmol/kg; stability after addition of a NaOH solution [7]: the solution remained clear with no discoloration or formation of a precipitate; Heart T₁, Bolus Injection, Mean [8, 16]: 156 ms; Heart T₂, Bolus Injection, Mean [8, 16]: 40 ms; Kidney T₁, Bolus Injection, Mean [8, 16]: 109 ms; Kidney T₂, Bolus Injection, Mean [8, 16]: 40 ms; Liver T₁, Bolus Injection, Mean [8, 16]: 51 ms; Liver T₂, Bolus Injection, Mean [8, 16]: 18 ms; Liver T₂, Infusion ([8]; 0.10 mmole/kg, slow infusion (over 5 min), 15 min after, individual tissue samples): 15 msec (2×) and 11 msec and 20 msec; Heart T₁, Infusion, Mean [8, 17]: 179 ms; Heart T₂, Infusion, Mean [8, 17]: 41 ms; Kidney T₁, Infusion, Mean [8, 17]: 120 ms; Kidney T₂, Infusion, Mean [8, 17]: 45 ms; Liver T₁, Infusion, Mean [8, 17]: 39 ms; Liver T₂, Infusion, Mean [8, 17]: 15 ms; tolerance of the infusion ([8]; infusion 0.065 mmole/kg/min for 5 min, total dose 0.31 mole/kg): tolerated the infusion without outward signs of a pharmacologic or toxicologic effect; heart T₁ [8, 18]: 45 ms; heart T₂ [8, 18]: 21 ms; liver T₁ [8, 18]: 19 ms; liver T₂ [8, 18]: 10 ms; liver parenchyma image intensity ([9]; image after one hour (60 min)): returned to normal intensity; enhancement of the liver and parenchyma in the image ([9]; one min after injection, doses of 10 and 20 µmole/kg, Spin Echo TR = 300 msec, TE = 20 msec): over 100%; time for which the plasma T₁ was maintained below 250 [10]: 40 min; plasma T₁ ([10]; 0 min (baseline)): 1600 ms; plasma T₂ ([10]; 0 min (baseline)): 447 ms; plasma T₁ ([10]; 10 min): 58 ms; plasma T₂ ([10]; 10 min): 42 ms; plasma T₁ ([10]; 20 min): 102 ms; plasma T₂ ([10]; 20 min): 65 ms; plasma T₁ ([10]; 30 min): 156 ms; plasma T₂ ([10]; 30 min): 110 ms; plasma T₁ ([10]; 40 min): 224 ms; plasma T₂ ([10]; 40 min): 156 ms; plasma T₁ ([10]; 50 min): 259 ms; plasma T₂ ([10]; 50 min): 180 ms; plasma T₁ ([10]; 60 min): 323 ms; plasma T₂ ([10]; 60 min): 205 ms; plasma T₁ ([10]; 70 min): 453 ms; plasma T₂ ([10]; 70 min): 257 ms; plasma T₁ ([10]; 80 min): 550 ms; plasma T₂ ([10]; 80 min): 293 ms; plasma T₁ ([10]; 90 min): 625 ms; plasma T₂ ([10]; 90 min): 295 ms

**Q.** With Manganese chloride [MnCl₂] as the compound, how does the “Plasma Dose, T₁ = 200” value [1, 19] read?
**A.** Its value is 0.01.

**Q.** Which “Plasma Dose, T₁ = 200” value [1, 19] does the source give for MnEDTA [reference compound] here?
**A.** Its value is 0.13.

**Q.** And the LD₅₀ [2]?
**A.** The LD₅₀ was 5.0.

**Q.** What about the “Safety Factor” value [2] of the same compound?
**A.** The value was 38.
